Reference: patent US6846825B1, “Antibacterial agents” (British Biotech Pharmaceuticals Limited, priority 1999, dated 2005)
Values after ≈ are worked out from the molar mass of the structure shown. Like-named read-outs stand apart in the source and are kept apart here.

Assays:
Format in all cases: cell-based
[1] = test system: Staphylococcus capitis (American Type Culture Collection number 35661); experiment: Minimal inhibitory concentration (MIC), two fold serial dilutions in 2×YT broth; conditions: S. capitis ATCC 35661, 2×YT broth, 37° C., 18 hours, lowest concentration that inhibited visible growth
Method: (§1) Minimal inhibitory concentrations (MIC) of compounds of the invention against E. coli strains DH5α (Genotype; F-ω80dlacZΔM15Δ(lacZYA-argF)U169 deoR recA1 endA1 hsdR17(rk^−,mk^+)phoA supE44λ^−thi-1 gyrA96 relA1) obtained from Gibco BRL Life Technologies, or Staphylococcus capitis (American Type Culture Collection number 35661) were determined as follows. Stock solutions of each test compound were prepared by dissolution of the compound in dimethylsulfoxide at 10 mM. For the determination of the minimal inhibitory concentration, two fold serial dilutions were prepared in 2×YT broth (typtone 16 g/1, yeast extract 10 g/1, sodium chloride 5 g/1 obtained from BIO 101 Inc, 1070 Joshua Way, Vista, Calif. 92083, USA) to yield 0.05 ml compound-containing medium per well. Inoculate were prepared from cultures grown overnight in 2×YT broth at 37° C. Cell densities were adjusted to absorbance at 660 nm (A660)=0.1; the optical density-standardised preparations were diluted 1:1000 in 2×YT broth; and each well inoculated with 0.05 ml of the diluted bacteria. Microtiter plates were incubated at 37° C. for 18 hours in a humidified incubator. The MIC (μM) was recorded as the lowest drug concentration that inhibited visible growth.

E. coli strains DH5α = experiment: as above; conditions: 37° C., 18 hours, lowest concentration that inhibited visible growth
Method: as §1

Haemophilus Influenza = experiment: MIC against respiratory tract pathogens, Microdilution Broth Method (NCCLS)
Method: (§2) In another experiment, the MICs of the compound of Example 91 were determined against certain respiratory tract pathogens, using the Microdilution Broth Method according to the approved standard of the National Committee for Clinical Laboratory Standards procedure (Methods for dilution antimicrobial susceptibility tests for bacteria that grow aerobically—Fourth Edition ISBN 1-56238-309-4).

Moraxella catarrhalis = experiment: as above
Method: as §2

Streptococcus pneumoniae = experiment: as above
Method: as §2

[2] = Staphylococcus capitis, ATCC35661

MIC [1, 2] [µM] | MIC (E. coli strains DH5α; Escherichia coli) [µM] | MIC (E. coli strains DH5α) [µM] | Compound | MIC [1] [µM] | also measured
100 (≈ 33.2 µg/mL) | – | – | CCCC[C@H](CN(O)C=O)C(=O)N1CCC(c2ccccc2)CC1 [Example 24, N-Hydroxy-N-[2R-(4-phenyl-piperidine-1-carbonyl)-hexyl]-formamide] | – | –
– | 100 (≈ 34.5 µg/mL) | – | CCCC[C@H](CN(O)C=O)C(=O)N1CCN(CCOCCO)CC1 [Example 29, N-Hydroxy-N-(2R-{4-[2-(2-hydroxy-ethoxy)-ethyl]-piperazine-1-carbonyl}-hexyl)-formamide] | – | –
– | – | 200 (≈ 97.1 µg/mL) | CCCC[C@H](CN(O)C=O)C(=O)N[C@H](C(=O)N1CCN(Cc2ccccc2C#N)CC1)C(C)(C)C [Example 44, 2R-[(Formyl-hydroxy-amino)-methyl]-hexanoic acid {1S-[4-(2-cyano-benzyl)-piperazine-1-carbonyl]-2,2-dimethyl-propyl}-amide] | 12 (≈ 5.83 µg/mL) | –
– | – | 200 (≈ 102 µg/mL) | CC(C)(C)[C@H](NC(=O)[C@H](CC1CCCC1)CN(O)C=O)C(=O)N1CCN(Cc2ccccc2C#N)CC1 [Example 50, N-{1S-[4-(2-Cyano-benzyl)-piperazine-1-carbonyl]-2,2-dimethyl-propyl}-2R-cyclopentylmethyl-3-(formyl-hydroxy-amino)-propionamide] | 6.2 (≈ 3.17 µg/mL) | –
6.2 (≈ 3.22 µg/mL) | 200 (≈ 104 µg/mL) | – | CCCC[C@H](CN(O)C=O)C(=O)N[C@H](C(=O)N1CCN(C(=O)c2ccc3c(c2)OCO3)CC1)C(C)(C)C [Example 55, 2R-[(Formyl-hydroxy-amino)-methyl]-hexanoic acid {1S-[4-(3a,7a-dihydro-benzo[1,3]dioxole-5-carbonyl)-piperazine-1-carbonyl]-2,2-dimethyl-propyl}-amide] | – | –
25 (≈ 11.5 µg/mL) | 50 (≈ 23.1 µg/mL) | – | CCCC[C@H](CN(O)C=O)C(=O)N[C@H](C(=O)N1CCN(Cc2cccnc2)CC1)C(C)(C)C [Example 56, 2R-[(Formyl-hydroxy-amino)methyl]-hexanoic acid [2,2-dimethyl-1S-(4-pyridin-3-ylmethyl-piperazine-1-carbonyl)-propyl]-amide] | – | –
6.2 (≈ 3.29 µg/mL) | 100 (≈ 53.1 µg/mL) | – | CC(C)(C)[C@H](NC(=O)[C@H](CC1CCCC1)CN(O)C=O)C(=O)N1CCN(Cc2ccc3c(c2)OCO3)CC1 [Example 57, N-[1S-(4-Benzo[1,3]dioxol-5-ylmethyl-piperazine-1-carbonyl)-2,2-dimethyl-propyl]-2R-cyclopentylmethyl-3-(formyl-hydroxy-amino)-propionamide] | – | –
– | – | 200 (≈ 99.3 µg/mL) | CCCC[C@H](CN(O)C=O)C(=O)N[C@H](C(=O)N1CCN(C(=O)c2snnc2C)CC1)C(C)(C)C [Example 69, 2R-[(Formyl-hydroxy-amino)-methyl]-hexanoic acid {2,2-dimethyl-1S-[4-(4-methyl-[1,2,3]thiadiazole-5-carbonyl)-piperazine-1-carbonyl]-propyl}-amide] | 25 (≈ 12.4 µg/mL) | –
– | – | 200 (≈ 102 µg/mL) | CCCC[C@H](CN(O)C=O)C(=O)N[C@H](C(=O)N1CCN(C(=O)c2sc(C)nc2C)CC1)C(C)(C)C [Example 74, 2R-[(Formyl-hydroxy-amino)-methyl]-hexanoic acid {1S-[4-(2,4-dimethyl-thiazole-5-carbonyl)-piperazine-1-carbonyl]-2,2-dimethyl-propyl}-amide] | 25 (≈ 12.7 µg/mL) | –
– | – | – | CCCC[C@H](CN(O)C=O)C(=O)N[C@H](C(=O)N1CCN(S(=O)(=O)c2ccc(-c3ccccc3)cc2)CC1)C(C)(C)C [Example 78, 2R-[(Formyl-hydroxy-amino)-methyl]-hexanoic acid {1S-[4-(biphenyl-4-sulfonyl)-piperazine-1-carbonyl]-2,2-dimethyl-propyl}-amide] | 200 (≈ 117 µg/mL) | –
– | – | – | CCCC[C@H](CN(O)C=O)C(=O)N[C@H](C(=O)N1CCN(C(=O)c2ccc(-c3ccccc3)cc2)CC1)C(C)(C)C [Example 79, 2R-[(Formyl-hydroxy-amino)-methyl]-hexanoic acid {1S-[4-(biphenyl-4-carbonyl)-piperazine-1-carbonyl]-2,2-dimethyl-propyl}-amide] | 6.25 (≈ 3.44 µg/mL) | –
6.2 (≈ 3.46 µg/mL) | 100 (≈ 55.9 µg/mL) | – | CN(C)C(=O)c1ccc(OC2CCN(C(=O)[C@@H](NC(=O)[C@H](CC3CCCC3)CN(O)C=O)C(C)(C)C)CC2)cc1 [Example 88, 4-(1S-{2-[2R-Cyclopentylmethyl-3-(formyl-hydroxy-amino)-propionylamino]-3,3-dimethyl-butyryl}-piperidin-4-yloxy)-N,N-dimethyl-benzamide] | – | –
25 (≈ 15 µg/mL) | 200 (≈ 120 µg/mL) | – | CC(C)(C)C(NC(=O)[C@H](CC1CCCC1)CN(O)C=O)C(=O)N1CCC(Oc2ccc(C(=O)N3CCOCC3)cc2)CC1 (stereo partly drawn) [Example 89, 2R-Cyclopentylmethyl-N-(2,2-dimethyl-1S-{4-{4-(morpholine-4-carbonyl)-phenoxy}-piperidine-1-carbonyl}-propyl)-3-(formyl-hydroxy-amino)-propionamide] | – | –

Compound | MIC [1, 2] [µM] | MIC (E. coli strains DH5α; Escherichia coli) [µM] | MIC (E. coli strains DH5α) [µM] | MIC [1] [µM] | also measured
CC(C)(C)[C@H](NC(=O)[C@H](CC1CCCC1)CN(O)C=O)C(=O)N1CCN(Cc2ccc(-c3ccccc3)cc2)CC1 [Example 52, N-[1S-(4-Biphenyl-4-ylmethyl-piperazine-1-carbonyl)-2,2-dimethyl-propyl]-2R-cyclopentylmethyl-3-(formyl-hydroxy-amino)-propionamide] | – | – | 200 (≈ 113 µg/mL) | 6.2 (≈ 3.49 µg/mL) | –
CC(C)(C)[C@H](NC(=O)[C@H](CC1CCCC1)CN(O)C=O)C(=O)N1CCN(Cc2ccc3ccccc3c2)CC1 [Example 54, 2R-Cyclopentylmethyl-N-[2,2-dimethyl-1S-(4-naphthalen-2-ylmethyl-piperazine-1-carbonyl)-propyl]-3-(formyl-hydroxy-amino)-propionamid] | – | – | 200 (≈ 107 µg/mL) | 3.1 (≈ 1.66 µg/mL) | –
CC(C)(C)C(NC(=O)[C@H](CC1CCCC1)CN(O)C=O)C(=O)N1CCC(Oc2ccc(C(=O)N3CCC(O)CC3)cc2)CC1 (stereo partly drawn) [Example 91, 2R-Cyclopentylmethyl-3-(formyl-hydroxy-amino)-N-(1S-{4-[4-(4-hydroxy-piperidine-1-carbonyl)-phenoxy]-piperidine-1-carbonyl}-2,2-dimethyl-propyl)-propionamide] | 25 (≈ 15.4 µg/mL) | 200 (≈ 123 µg/mL) | – | – | MIC (Haemophilus Influenza; Haemophilus Influenza 1390): 1 µg/mL (≈ 1.63 µM); MIC (Haemophilus Influenza; Haemophilus Influenza 1414): 4 µg/mL (≈ 6.51 µM); MIC (Moraxella catarrhalis; Moraxella catarrhalis 2412): 0.5 µg/mL (≈ 0.813 µM); MIC (Moraxella catarrhalis; Moraxella catarrhalis 2413): 0.25 µg/mL (≈ 0.407 µM); MIC (Streptococcus pneumoniae; Streptococcus pneumoniae (PIP) 2391): 0.25 µg/mL (≈ 0.407 µM); MIC (Streptococcus pneumoniae; Streptococcus pneumoniae (PRP) 2390): 0.25 µg/mL (≈ 0.407 µM); MIC (Streptococcus pneumoniae; Streptococcus pneumoniae (PSP) 2403, read-out: MIC): 0.25 µg/mL (≈ 0.407 µM)
